Measurements taken from patent US8377913B2, “Vitamin D receptor activators and methods of making” (AbbVie Inc., priority 2007, dated 2013).

How the values were obtained:
[1] = test system: VDR (VDRE-luciferase-reporter construct); test: VDRE Reporter Gene Assay in HEK cells with stable expression of VDR; format: cell-based; settings: Homo sapiens, HEK293, 24 hours
Procedure: Compound activity was also assessed by looking at a Vitamin D Response Element (VDRE) reporter gene assay, Human Embryonic Kidney cells (HEK cells) with a stable expression of VDR were cultured in 96-well plates at ˜4×10^5 cells/mL (100 μL/well) in DMEM medium containing 10% fetal calf serum. Cells were transfected with 0.2 μg per well of a VDRE-luciferase-reporter construct (from Y. Li, University of Chicago) and then treated with test agents at indicated concentrations for 24 hours. The luciferase activity was then measured following the manufacturer's instructions (Promega, Madison, Wis.).

[2] = test system: Thrombospondin mRNA in human coronary artery smooth muscle cells (CASMC); test: Thrombospondin mRNA in CASMC; format: cell-based; settings: Homo sapiens
Procedure: (§1) Primary culture of human coronary artery smooth muscle cells (CASMC) (commercially available from Cambrex, Walkersville, Md.) were grown in smooth muscle growth medium SmGM-2 (commercially available from Lonza Bioscience) containing 5.5 mM glucose, 5% FBS, 50 μg/ml gentamicin, 50 ng/ml amphotericin-B, 5 μg/ml insulin, 2 ng/ml human recombinant fibroblast growth factor (hFGF), and 0.5 ng/ml human recombinant epidermal growth factor (hEGF) at 37° C. in a humidified 5% CO2-95% air atmosphere. Cells were grown to >80% confluence and used within five passages.
(§2) Real-time reverse transcription-PCR was performed with a MyiQ Real-Time PCR Detection System (BioRad, Hercules, Calif.). Each sample has a final volume of 25 μl containing 100 ng of cDNA, […] each of the forward and reverse PCR primers and […] of the TaqMan™ probe for the gene of interest (Applied Biosystems, Foster City, Calif.). Temperature conditions consisted of a step of 5 minutes at 95° C., followed by 40 cycles of 60° C. for 1 minute and 95° C. for 15 seconds. Data was collected during each extension phase of the PCR reaction and analyzed with the software package (BioRad, Hercules, Calif.). Threshold cycles were determined for each gene. […]

[3] = test system: PAI-1 mRNA in human coronary artery smooth muscle cells (CASMC); test: PAI-1 mRNA in CASMC; format: cell-based; settings: Homo sapiens
Procedure: as §1, §2

[4] = test system: Thrombomodulin mRNA in human coronary artery smooth muscle cells (CASMC); test: Thrombomodulin mRNA in CASMC; format: cell-based; settings: Homo sapiens
Procedure: as §1, §2

[5] = test system: Renin mRNA in As4.1 cells; test: Renin mRNA in As4.1 cells transfected with pcDNA-hVDR (real-time RT-PCR); format: cell-based
Procedure: As4.1 cells (ATCC, Manassas, Va.) were cultured in Dulbecco's Modified Eagle Medium DMEM (commercially available from Invitrogen, Carlsbad, Calif.) with 10% fetal bovine serum at 37° C. in a humidified 5% CO2-95% air atmosphere. C3;ells were transfected with the pcDNA-hVDR plasmid (provided by Yan Chun Li, University of Chicago) by LIPOFECTAMINE™ 2000 (Invitrogen, Carlsbad, Calif.). siRNA was transfected with the pcDNA-hVDR plasmid by LIPOFECTAMINE™ 2000 according to the manufacturer's protocol. Twenty-four hours after transfection, cells were treated with test agents.
Real-time reverse transcription-PCR was performed with a MyiQ Real-time PCR Detection System (commercially available from BioRad, Hercules, Calif.). […] TaqMan™ probes that were 5′ labeled with the reporter 6-carboxyfluorescein (FAM) and 3′ labeled with the quencher tetramethylrhodamine (TAMRA) were used and the primer and probe sets were obtained from Applied Biosystems (Foster City, Calif.). Temperature conditions consisted of a step of 5 minutes at 95° C., followed by 45 cycles of 60° C. for 1 minute and 95° C. for 15 seconds. Data was collected during each extension phase of the PCR reaction and analyzed with the accompanying software package (BioRad, Hercules, Calif.). Threshold cycles were determined for each gene.

Male, C57BL6, mice = test: Normal Mouse Calcemia Model; format: in vivo
Procedure: Male, C57BL6, mice were obtained from Jackson Laboratories. The mice were habituated for four days while maintained on a normal diet (D10001, Research Diets Inc.). Treatment was initiated with vehicle (20% ethanol/30% propylene glycol/50% water, 0.05 mL, s.c.) or test agent administered over a three log dose range. The animals were dosed once daily for 3 days. Twenty-four hours after the last dose, animals were anesthetized with ketamine/xylazine (100/18 mg/kg) and bled by cardiac puncture for measurement of PTH and other end points.
Measurement of PTH and minerals: Calcium (Ca), serum phosphorus (Pi), creatinine and BUN were measured from serum using an Abbott Aeroset® (Abbott Laboratories, Abbott Park, Ill.). Blood ionized calcium (iCa) was determined using the i-STAT® system (Abbott Laboratories, East Windsor, N.J.). Serum PTH was measured using a mouse parathyroid hormone (PTH) EIA kit obtained from ALPCO/Immutopics, Inc. (Windham, N.H.). Selected data is shown is Table 6. The graphs in FIG. 4 give an indication of dose response. Notable is that Example 1 produced an approximately 30% reduction in PTH over at least a three log dose range without a concomitant elevation of serum calcium of greater than 1 mg/dL.
Data analysis: Mean±standard error of the mean was calculated for each group. One way ANOVA followed by a Dunnett's test was used to assess differences between vehicle and drug-treated groups. *p<0.05=significance.

[6] = molecular target: T1, recombinant full-length human Vitamin D nuclear receptor (Homo sapiens, UniProt P11473); test: biochemical
T1 sequence (P11473 1-427): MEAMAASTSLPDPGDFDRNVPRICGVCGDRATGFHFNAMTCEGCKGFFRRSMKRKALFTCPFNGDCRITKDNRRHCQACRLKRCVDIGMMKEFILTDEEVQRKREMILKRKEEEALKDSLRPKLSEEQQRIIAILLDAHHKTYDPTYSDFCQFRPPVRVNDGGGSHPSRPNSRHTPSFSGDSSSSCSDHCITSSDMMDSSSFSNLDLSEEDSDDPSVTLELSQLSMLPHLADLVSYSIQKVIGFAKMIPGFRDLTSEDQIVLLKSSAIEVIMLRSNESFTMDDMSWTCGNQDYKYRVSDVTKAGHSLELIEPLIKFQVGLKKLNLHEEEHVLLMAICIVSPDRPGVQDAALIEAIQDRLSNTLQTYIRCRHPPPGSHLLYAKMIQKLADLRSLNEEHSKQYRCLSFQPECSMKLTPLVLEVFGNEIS
Procedure: In vitro binding of selected compounds according to the invention to VDR was assessed using the following procedure. […] Each test compound was then serially diluted in binding buffer to concentrations appropriate for the assay, as one skilled in the art can determine.
Final assay volume was 100 uL. The filled plate was incubated overnight at 4° C. with gentle shaking. After 18 hours of incubation, 20 uL of wheat germ agglutinin-coated yttrium silicate scintillation proximity assay (SPA) beads (commercially available from Amersham Biosciences, Piscataway, N.J.; Part # RPNQ0270) resuspended in binding buffer was added to each well (200 ug/well) and the plate was incubated at room temperature for 2 hours with gentle shaking.

[7] = over at least a three log dose range

With `C=C1[C@H](O)CC(=C/C=C2\CCC[C@]3(C)[C@@H]([C@H](C)COC(=O)C(C)(C)C)CC[C@@H]23)C[C@H]1O` [Example 1, (2S)-2-[(1R,3R,7E, 17β)-1,3-dihydroxy-2-methylene-9,10-secoestra-5,7-dien-17-yl]propyl pivalate] the EC50 [1] was 400 pM, the IC50 [2] was 4 pM and the IC50 [3] was 10 pM. The EC50 [4] was 2200 pM, the IC50 [5] was 300 pM and the “concomitant elevation of serum calcium” value (Male, C57BL6, mice; [7]) was ≤ 1 mg/dL. For the same molecule, the “reduction in PTH” value (Male, C57BL6, mice; [7]) was “approximately 30%”, the “1 mg/dL Δ total Ca” value (Male, C57BL6, mice; s.c. once daily for 3 days, dose giving 1 mg/dL change in total Ca) was >100 µg/kg and the ED50 (Male, C57BL6, mice; sc, 72 h, s.c. once daily for 3 days, read-out: PTH ED50) was 0.0105 mg/kg. The IC50 [6] was 496000 pM.
